Experimental data published in patent US20040077632A1, “Pharmaceutically active hydrophilic sulfonamide derivatives as inhibitors of protein junkinases” (priority 2000, published 2004).
pIC50: −log10 of the molar value. Converted amounts (≈) assume the structure as drawn.

Columns and labels:
[1] = biological target: JNK3 (Homo sapiens, UniProt P53779); assay: JNK3 in vitro assay (c-jun phosphorylation, 33P incorporation, SPA); type: biochemical; settings: recombinant pre-activated GST-JNK3, biotinylated GST-c-Jun, 2 μM 33γ-ATP
Sequence of JNK3 (P53779 whole entry): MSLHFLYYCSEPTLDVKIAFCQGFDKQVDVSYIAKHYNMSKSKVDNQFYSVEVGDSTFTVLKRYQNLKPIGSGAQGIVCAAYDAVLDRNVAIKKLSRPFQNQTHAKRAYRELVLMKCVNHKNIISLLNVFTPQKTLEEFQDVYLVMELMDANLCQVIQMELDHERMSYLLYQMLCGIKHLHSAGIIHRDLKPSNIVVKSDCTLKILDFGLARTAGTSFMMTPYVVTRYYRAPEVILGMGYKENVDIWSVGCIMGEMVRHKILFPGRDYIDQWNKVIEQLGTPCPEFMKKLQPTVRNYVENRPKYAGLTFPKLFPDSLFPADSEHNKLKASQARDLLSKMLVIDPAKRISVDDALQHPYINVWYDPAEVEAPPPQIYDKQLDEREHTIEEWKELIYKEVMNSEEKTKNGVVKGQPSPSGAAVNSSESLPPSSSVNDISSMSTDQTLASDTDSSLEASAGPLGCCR
Procedure: The phosphorylation of c-jun by JNK2 or JNK3 may be followed by monitoring the incorporation of ^33P into c-jun following the protocol below. The inhibitory activity of the compounds according to formula I, in respect of c-jun phosphorylation through JNK, is determined by calculating the phosphorylation activity of a JNK in the presence or absence of the test compounds according to formula I.
JNK3 and/or -2 assays are performed in 96 well MTT plates: incubation of 0.5 μg of recombinant, pre-activated GST-JNK3 or GST-JNK2 with 1 μg of recombinant, biotinylated GST-c-Jun and 2 μM ^33γ-ATP (2 nCi/μl), in the presence or absence of compounds according to formula I and in a reaction volume of 50 μl containing 50 mM Tris-HCl, pH 8.0; 10 mM MgCl2; 1 mM Dithiothreitol, and 100 μM NaVO4. The incubation is performed for 120 min. at R.T and stopped upon addition of 200 μl of a solution containing 250 μg of Streptavidine-coated SPA beads (Amersham, Inc.)*, 5 mM EDTA, 0.1% Triton X-100 and 50 μM ATP, in phosphate saline buffer. After incubation for 60 minutes at RT, beads are sedimented by centrifugation at 1500×g for 5 minutes, resuspended in 200 μl of PBS containing 5 mM EDTA, 0.1% Triton X-100 and 50 μM ATP and the radioactivity measured in a scintillation β counter, following sedimentation of the beads as described above. By replacing biotinylated GST-c Jun with biotinylated GST-1ATF2 or biotinylated myelin basic protein, this assay may also be used to measure inhibition of pre-activated p38 and ERK MAP Kinases, respectively.

[2] = Solubility in water at pH 7.4; type: physicochemical; settings: aqueous buffer, pH 7.4, r.t.
Procedure: The compounds have been assessed in respect of their solubility in water, at a pH of 7.4 at room temeprature. In general the solubility of compounds of formula (I) is in a range of at least 50 μg/mL solvent, more preferably of at least 100 μg/mL solvent.

Molecule COc1cccc(C(=O)NCc2cc(C(=O)O)c(S(=O)(=O)N3CCC(Nc4cccc(S(=O)(=O)C(F)(F)F)c4)CC3)s2)c1 [Example 1, 5-{[(3-methoxybenzoyl)amino]methyl}-2-[(4-{3-[(trifluoromethyl) -sulfonyl]anilino}piperidin-1-yl)sulfonyl]thiophene-3-carboxylic acid] has a pIC50 [1] greater than 7.00 and a solubility [2] of 0.18 mg/mL (≈ 272 µM).

In the case of COc1cccc(C(=O)NCc2cc(C(=O)O)c(S(=O)(=O)N3CCC(NCc4ccc(C(F)(F)F)cc4)CC3)s2)c1 [Example 4, 5-{[(3-methoxybenzoyl)amino]methyl}-2-[(4-{[4-(trifluoromethyl)benzyl]amino}-1-piperidinyl)sulfonyl]-3-thiophenecarboxylic acid], the pIC50 [1] was greater than 7.00.

Molecule “N-({4-(hydrazinocarbonyl)-5-[(4-{3-[(trifluoro-methyl)sulfonyl]anilino}piperidin-1-yl)sulfonyl]-thien-2-yl}methyl)-3-methoxybenzamide [Example 6]” has a pIC50 [1] greater than 7.00.
